Reference: paper PMC8848768, “Synthesis and evaluation of potent yaku'amide A analogs” (Chemical Science, 2022)
Numbered stars: 1 amine (or outer) side, 2 acyl side, 3 side chain; on linkers, the order of the positions; unused ones are H or OH. Square brackets hold non-standard residues; d marks the D form. Peptide text beside a SMILES is read from it. * marks the point of attachment. Heptanoyl(3-oxo-2,2,4S,6-Me) = CC(C)C[C@H](C)C(=O)C(C)(C)C(=O)*; NH((S)-1-NMe2-3-Me-but-2-yl) = CC(C)[C@@H](CN(C)C)N*; Ile(3R-OH) = CC[C@@](C)(O)[C@H](N)C(=O)O; dVal(3-OH) = CC(C)(O)[C@@H](N)C(=O)O; d(aIle) = CC[C@H](C)[C@@H](N)C(=O)O; Val(3-OH) = CC(C)(O)[C@H](N)C(=O)O; X1 = CCC(CC)=C(N[*:1])C(=O)[*:2]; NHCH2CH2NMe2 = CN(C)CCN*; ΔVal = CC(C)=C(N)C(=O)O

Columns and labels:
[1] = system: CALU6; test: cells; conditions: read-out: Aver IC50, CALU6; CALU6 (Lung - Adenocarcinoma); MTS, 72 hours, 37 °C, 5% CO2, 384-well; n>2 independent studies (in duplicate)
Protocol: (§1) The antiproliferative activity profiles of 1a, its full-length analogs 2a and 2b, and its partial structures (23, 24, 26, and 30) were determined by in vitro screening in 72 hours MTS cell proliferation assays against a panel of 18 different human cancer cell lines. […] The three peptides were also evaluated for their antiproliferative activity against the lung fibroblast MRC5 cell line.
(§2) Cells (40 µ L) are added into individual wells of a 384-well black/clear bottom plate on day zero at concentrations enabling continuous log growth over the course of the assay. On day one, compounds (or DMSO) are transferred using an ATS-liquid handler (100 nL per well) to individual wells containing cells and the cells are treated for 72 hours (37 °C, 5% CO 2) prior to measuring proliferation using MTS reagent following manufacturer’s instructions. Net OD values are determined by subtracting the average OD values of cells (measured on day 1, T = 0) from average total OD value of cells (measured on day 4, T = 72h). IC 50 values are calculated using proprietary software (IC 50 values normalized against all compounds). Results represent n>2 independent studies (in duplicate).
(§3) Table S1. Antiproliferative Data of Compounds 1a, 2a, 2b, 23, 24, 26, and 30.
(§4) Table S2. Human Cell Line Descriptions.
(§5) Human Cell Line* Description
(§6) *All cells were obtained from ATCC and are authenticated

[2] = system: A549; test: cells; conditions: read-out: Aver IC50, A549; A549 (Lung - NSCLC); MTS, 72 hours, 37 °C, 5% CO2, 384-well; n>2 independent studies (in duplicate)
Protocol: as §1, §2, §3, §4, §5, §6

[3] = system: lung fibroblast MRC5 cell line; test: cells; conditions: read-out: Aver IC50, MRC5; MRC5 (Lung Fibroblast, noncancerous); MTS, 72 hours, 37 °C, 5% CO2, 384-well; n>2 independent studies (in duplicate)
Protocol: as §1, §2, §3, §4, §5, §6

[4] = system: COLO678; test: cells; conditions: read-out: Aver IC50, COLO678; COLO678 (Colon Carcinoma); MTS, 72 hours, 37 °C, 5% CO2, 384-well; n>2 independent studies (in duplicate)
Protocol: as §1, §2, §3, §4, §5, §6

[5] = system: JURKAT; test: cells; conditions: read-out: Aver IC50, JURKAT; JURKAT (acute T-cell leukemia); MTS, 72 hours, 37 °C, 5% CO2, 384-well; n>2 independent studies (in duplicate)
Protocol: as §1, §2, §3, §4, §5, §6

[6] = system: NCIH1048; test: cells; conditions: read-out: Aver IC50, NCIH1048; NCIH1048 (Lung - SCLC); MTS, 72 hours, 37 °C, 5% CO2, 384-well; n>2 independent studies (in duplicate)
Protocol: as §1, §2, §3, §4, §5, §6

[7] = system: MV411; test: cells; conditions: read-out: Aver IC50, MV411; MV411 (Acute Myeloid Leukemia); MTS, 72 hours, 37 °C, 5% CO2, 384-well; n>2 independent studies (in duplicate)
Protocol: as §1, §2, §3, §4, §5, §6

[8] = system: OVCAR3; test: cells; conditions: read-out: Aver IC50, OVCAR3; OVCAR3 (Ovary - Adenocarcinoma); MTS, 72 hours, 37 °C, 5% CO2, 384-well; n>2 independent studies (in duplicate)
Protocol: as §1, §2, §3, §4, §5, §6

[9] = system: BXPC3; test: cells; conditions: read-out: Aver IC50, BXPC3; BXPC3 (Pancreatic - Adenocarcinoma); MTS, 72 hours, 37 °C, 5% CO2, 384-well; n>2 independent studies (in duplicate)
Protocol: as §1, §2, §3, §4, §5, §6

[10] = system: THP1; test: cells; conditions: read-out: Aver IC50, THP1; THP1 (Acute Monocytic Leukemia); MTS, 72 hours, 37 °C, 5% CO2, 384-well; n>2 independent studies (in duplicate)
Protocol: as §1, §2, §3, §4, §5, §6

[11] = system: RAMOS; test: cells; conditions: read-out: Aver IC50, RAMOS; RAMOS (Burkitt's lymphoma); MTS, 72 hours, 37 °C, 5% CO2, 384-well; n>2 independent studies (in duplicate)
Protocol: as §1, §2, §3, §4, §5, §6

[12] = system: A375; test: cells; conditions: read-out: Aver IC50, A375; A375 (Malignant Melanoma); MTS, 72 hours, 37 °C, 5% CO2, 384-well; n>2 independent studies (in duplicate)
Protocol: as §1, §2, §3, §4, §5, §6

[13] = system: HL60; test: cells; conditions: read-out: Aver IC50, HL60; HL60 (Leukema - Promyelocytic); MTS, 72 hours, 37 °C, 5% CO2, 384-well; n>2 independent studies (in duplicate)
Protocol: as §1, §2, §3, §4, §5, §6

[14] = system: HT29; test: cells; conditions: read-out: Aver IC50, HT29; HT29 (Colon Carcinoma); MTS, 72 hours, 37 °C, 5% CO2, 384-well; n>2 independent studies (in duplicate)
Protocol: as §1, §2, §3, §4, §5, §6

[15] = system: U937; test: cells; conditions: read-out: Aver IC50, U937; U937 (Pro-monocytic, Human Myeloid Leukemia); MTS, 72 hours, 37 °C, 5% CO2, 384-well; n>2 independent studies (in duplicate)
Protocol: as §1, §2, §3, §4, §5, §6

[16] = system: HCT116; test: cells; conditions: read-out: Aver IC50, HCT116; HCT116 (Colon Carcinoma); MTS, 72 hours, 37 °C, 5% CO2, 384-well; n>2 independent studies (in duplicate)
Protocol: as §1, §2, §3, §4, §5, §6

[17] = system: SNUC1; test: cells; conditions: read-out: Aver IC50, SNUC1; SNUC1 (Colon Carcinoma); MTS, 72 hours, 37 °C, 5% CO2, 384-well; n>2 independent studies (in duplicate)
Protocol: as §1, §2, §3, §4, §5, §6

[18] = system: PANC1005; test: cells; conditions: read-out: Aver IC50, PANC1005; PANC1005 (Pancreatic - Adenocarcinoma); MTS, 72 hours, 37 °C, 5% CO2, 384-well; n>2 independent studies (in duplicate)
Protocol: as §1, §2, §3, §4, §5, §6

[19] = system: MCF7; conditions: MCF7 (Breast Carcinoma), MTS, 72 hours, 37 °C, 5% CO2, 384-well, n>2 independent studies (in duplicate); for IC50: read-out: Aver IC50, MCF7
Protocol: as §1, §2, §3, §4, §5, §6

[20] = system: panel of 18 different human cancer cell lines; test: 72 h MTS cell proliferation assays, panel of cancer cell lines; format: cell-based; conditions: against most of the cell lines, ca.
Protocol: as §1, §2, §3, §4, §5, §6

[21] = system: P388 murine leukemia cells; conditions: cited from earlier work
From the text: The linear peptide yaku'amide A (1a, Fig. 1) was isolated by Matsunaga and co-workers from the deep-sea sponge Ceratopsion sp.[1] It contains several unusual β-tert-hydroxy amino acids (β-OHAAs) and tetrasubstituted dehydroamino acids (ΔAAs).

Compound | IC50 [1] | IC50 [2] | IC50 [3] | IC50 [4] | IC50 [5] | IC50 [6] | IC50 [7] | IC50 [8] | IC50 [9] | IC50 [10] | IC50 [11] | IC50 [12] | IC50 [13] | IC50 [14] | IC50 [15] | IC50 [16] | IC50 [17] | IC50 [18] | IC50 [19] | other results
CCC(CC)=C(NC(=O)[C@@H](NC(=O)C(C)(C)C(=O)[C@@H](C)CC(C)C)[C@](C)(O)CC)C(=O)NCC(=O)NC(C(=O)N[C@@H](C(=O)N[C@@H](C(=O)N[C@@H](C(=O)N[C@H](C(=O)NC(C(=O)N[C@H](C)C(=O)N[C@@H](C(=O)N[C@H](C(=O)NC(C(=O)N[C@H](CN(C)C)C(C)C)=C(C)C)C(C)C)C(C)C)=C(C)C)C(C)(C)O)C(C)(C)O)[C@@H](C)CC)C(C)C)=C(C)C [Compound 2a] ({Heptanoyl(3-oxo-2,2,4S,6-Me)}-[Ile(3R-OH)][X1]G[ΔVal][dV][d(aIle)][dVal(3-OH)][Val(3-OH)][ΔVal][dA][dV]V[ΔVal]-{NH((S)-1-NMe2-3-Me-but-2-yl)}) | 578 nM | 86.5 nM | 5470 nM | 2010 nM | 4210 nM | 1310 nM | 20.8 nM | 81.4 nM | 3900 nM | 9190 nM | 362 nM | 1510 nM | 370 nM | 2270 nM | 435 nM | 1130 nM | 34.4 nM | 1970 nM | 13000 nM | Increased potency compared to 2b [20]: 2–4 fold
CCC(CC)=C(NC(=O)CNC(=O)C(NC(=O)[C@@H](NC(=O)C(C)(C)C(=O)[C@@H](C)CC(C)C)[C@](C)(O)CC)=C(C)C)C(=O)N[C@@H](C(=O)N[C@@H](C(=O)N[C@@H](C(=O)N[C@H](C(=O)NC(C(=O)N[C@H](C)C(=O)NCCN(C)C)=C(C)C)C(C)(C)O)C(C)(C)O)[C@@H](C)CC)C(C)C [Compound 30] ({Heptanoyl(3-oxo-2,2,4S,6-Me)}-[Ile(3R-OH)][ΔVal]G[X1][dV][d(aIle)][dVal(3-OH)][Val(3-OH)][ΔVal][dA]-NHCH2CH2NMe2) | > 25000 nM | 20600 nM | > 25000 nM | > 25000 nM | 22800 nM | > 25000 nM | 2700 nM | 12600 nM | > 25000 nM | > 25000 nM | 24300 nM | 24700 nM | 20000 nM | > 25000 nM | > 25000 nM | > 25000 nM | 20600 nM | > 25000 nM | 12600 nM | –
yaku'amide A [Compound 1a, reference compound] | 2220 nM | 108 nM | 14500 nM | 2690 nM | 4950 nM | 3110 nM | 119 nM | 227 nM | 3820 nM | 9290 nM | 975 nM | 2140 nM | 578 nM | 2890 nM | 1210 nM | 1740 nM | 129 nM | 2830 nM | 125 nM | Aver IC50, MCF7 [19]: potent; IC50, growth inhibition of P388 murine leukemia cells [21]: 0.014 µg/mL
